Measured values taken from patent publication EP2915814A2, “Crystalline salts of sitagliptin” (priority 2008, dated 2010).
Where a name gives a salt, the structure may show the parent alone. Marks after values point to notes of the source that are not given here.

What was measured:
[1] = Stability studies (storage at 60 °C in closed bottles or at 40 °C / 75 % RH in an open bottle; related substances by HPLC); settings: for Related Substances 2 W 40°C/75 % RH open / Related Substances 2 W 60°C closed: 2 weeks, 20160 min; for Related Substances 4 w 40°C/75 % RH closed / Related Substances 4 w 40°C/75 % RH open / Related Substances 4 w 60°C Closed bottle: 4 weeks, 40320 min; for Related Substances 12 weeks 40°C/75 % RH closed bottle / Related Substances 12 weeks 40°C/75 % RH open bottle: 120960 min; for Initial Related Substances: before storage
[2] = Hygroscopicity studies (water content after storage at 43 %, 75 % and 93 % relative humidity); type: physicochemical; settings: for change during the hygroscopicity studies: 43 %, 75 % and 93 % relative humidity, confirmed by DSC of samples kept at 93 % relative humidity for 2 weeks; for Initial water content: initial sample; for Hygroscopicity 2 weeks 43 % rh: 2 weeks at 43 % rh; for Hygroscopicity 2 weeks 43 % rh / Hygroscopicity 2 weeks 75 % rh / Hygroscopicity 2 weeks 93 % rh: % Equilibrium moisture content, ss = semi solid state of sample, β = solid first changed into liquid and solidified again; for Hygroscopicity 2 weeks 75 % rh: 2 weeks at 75 % rh; for Hygroscopicity 2 weeks 93 % rh: 2 weeks at 93 % rh
Description: The salts of the present invention and the free base were studied under three different humidity conditions (43 % relative humidity, 75 % relative humidity, and 93 % relative humidity).

[3] = closed bottle, four weeks at 60 °C
[4] = closed bottle, two weeks at 60 °C
[5] = open bottle, twelve weeks at 40 °C and 75 % RH

For N[C@@H](CC(=O)N1CCn2c(nnc2C(F)(F)F)C1)Cc1cc(F)c(F)cc1F [A: Phosphate, Sitagliptin Phosphate], the “Related Substances 2 W 40°C/75 % RH open” value [1] was 0.21%, the “Related Substances 2 W 60°C closed” value [1] was 0.50% and the “Related Substances 4 w 40°C/75 % RH closed” value [1] was 0.31%. For the same compound, the “Related Substances 4 w 40°C/75 % RH open” value [1] was 0.16%, the “Related Substances 4 w 60°C Closed bottle” value ([1]; closed bottle) was 0.38% and the “Related Substances 12 weeks 40°C/75 % RH closed bottle” value ([1]; closed bottle) was 0.57%. The “Related Substances 12 weeks 40°C/75 % RH open bottle” value ([1]; open bottle) was 0.37%, the “stability (degradation, related substances by HPLC)” value (“stability” below) [1, 3] was “stable” and the “stability” value [1, 4] was “stable”. The “Initial Related Substances” value [1] was 0.39%, the “stability” value [1, 5] was “stable” and the “Hygroscopicity (water content)” value ([2]; 2 weeks 43 % rh) was 0.41%. The “Hygroscopicity (water content)” value ([2]; 2 weeks 75 % rh) was 0.48%, the “Hygroscopicity (water content)” value ([2]; 2 weeks 93 % rh) was 0.82% and the “change during the hygroscopicity studies” value [2] was “did not show much change”. It also gave an Initial water content ([2]; before humidity storage) of 0.46%.

With N[C@@H](CC(=O)N1CCn2c(nnc2C(F)(F)F)C1)Cc1cc(F)c(F)cc1F [B: HCl I, Sitagliptin Hydrochloride Form I] the “Related Substances 2 W 40°C/75 % RH open” value [1] was 0.05%, the “Related Substances 2 W 60°C closed” value [1] was 0.01% and the “Related Substances 4 w 40°C/75 % RH closed” value [1] was 0.01%. The “Related Substances 4 w 40°C/75 % RH open” value [1] was 0.01%, the “Related Substances 4 w 60°C Closed bottle” value ([1]; closed bottle) was 0.01% and the “Related Substances 12 weeks 40°C/75 % RH closed bottle” value ([1]; closed bottle) was 0.14%. For the same compound, the “Related Substances 12 weeks 40°C/75 % RH open bottle” value ([1]; open bottle) was 0.15%, the “stability” value ([1]; closed bottle, four weeks at 60 °C, listed as HCl form I) was “stable” and the “stability” value ([1]; closed bottle, two weeks at 60 °C, listed as HCl form I) was “stable”. The “Initial Related Substances” value [1] was 0.04%, the “stability” value ([1]; open bottle, twelve weeks at 40 °C and 75 % RH, listed as HCl form I) was “stable” and the “Hygroscopicity (water content)” value ([2]; 2 weeks 43 % rh) was 3.86%. The “Hygroscopicity (water content)” value ([2]; 2 weeks 75 % rh) was 4.36%, the “Hygroscopicity (water content)” value ([2]; 2 weeks 93 % rh) was 4.49% and the Initial water content ([2]; before humidity storage) was 1.4%.

For N[C@@H](CC(=O)N1CCn2c(nnc2C(F)(F)F)C1)Cc1cc(F)c(F)cc1F [Base, 7-[(3R)-3-amino-1-oxo-4-(2,4,5-trifluorophenyl)butyl)-5,6,7,8-tetrahydro-3-(trifluoromethyl)-1,2,4-triazolo[4,3-a]pyrazine, reference compound], the “Related Substances 2 W 40°C/75 % RH open” value [1] was 0.27%, the “Related Substances 2 W 60°C closed” value [1] was 0.37% and the “Related Substances 4 w 40°C/75 % RH closed” value [1] was 0.46%. The “Related Substances 4 w 40°C/75 % RH open” value [1] was 0.39%, the “Related Substances 4 w 60°C Closed bottle” value ([1]; closed bottle) was 0.46% and the “Related Substances 12 weeks 40°C/75 % RH closed bottle” value ([1]; closed bottle) was 0.52%. The “Related Substances 12 weeks 40°C/75 % RH open bottle” value ([1]; open bottle) was 0.39%, the “stability” value ([1]; closed bottle, four weeks at 60 °C, listed as free base) was “stable” and the “stability” value ([1]; closed bottle, two weeks at 60 °C, listed as free base) was “stable”. For the same compound, the “Initial Related Substances” value [1] was 0.36%, the “stability” value ([1]; open bottle, twelve weeks at 40 °C and 75 % RH, listed as free base) was “stable” and the “Hygroscopicity (water content)” value ([2]; 2 weeks 43 % rh) was 0.19%. The “Hygroscopicity (water content)” value ([2]; 2 weeks 75 % rh) was 0.22%, the “Hygroscopicity (water content)” value ([2]; 2 weeks 93 % rh) was 0.3% and the “change during the hygroscopicity studies” value ([2]; listed as free base) was “did not show much change”. For the same compound, the Initial water content ([2]; before humidity storage) was 0.19%.

For N[C@@H](CC(=O)N1CCn2c(nnc2C(F)(F)F)C1)Cc1cc(F)c(F)cc1F [C: Lactate, Sitagliptin Lactate], the “Related Substances 2 W 40°C/75 % RH open” value [1] was 0.34%, the “Related Substances 2 W 60°C closed” value [1] was 0.43% and the “Related Substances 4 w 40°C/75 % RH closed” value [1] was 0.28%. For the same compound, the “Related Substances 4 w 40°C/75 % RH open” value [1] was 0.33%, the “Related Substances 4 w 60°C Closed bottle” value ([1]; closed bottle) was 0.49% and the “Related Substances 12 weeks 40°C/75 % RH closed bottle” value ([1]; closed bottle) was 0.56%. The “Related Substances 12 weeks 40°C/75 % RH open bottle” value ([1]; open bottle) was 0.59%, the “stability” value [1, 3] was “showed a degradation” and the “stability” value [1, 4] was “degradation was observed”. For the same compound, the “Initial Related Substances” value [1] was 0.16%, the “stability” value [1, 5] was “shows degradation” and the “Hygroscopicity (water content)” value ([2]; 2 weeks 43 % rh) was 0.54%. For the same compound, the “Hygroscopicity (water content)” value ([2]; 2 weeks 75 % rh) was 0.5%, the “Hygroscopicity (water content)” value ([2]; 2 weeks 93 % rh) was 28.77 * % and the Initial water content ([2]; before humidity storage) was 0.51%.

In the case of N[C@@H](CC(=O)N1CCn2c(nnc2C(F)(F)F)C1)Cc1cc(F)c(F)cc1F [E: Sulfate I, Sitagliptin Sulfate Form I], the “Related Substances 2 W 40°C/75 % RH open” value [1] is reported as 0.10%, the “Related Substances 2 W 60°C closed” value [1] is reported as 0.08% and the “Related Substances 4 w 40°C/75 % RH closed” value [1] is reported as 0.02%. The “Related Substances 4 w 40°C/75 % RH open” value [1] was 0.06%, the “Related Substances 4 w 60°C Closed bottle” value ([1]; closed bottle) was 0.02% and the “Related Substances 12 weeks 40°C/75 % RH closed bottle” value ([1]; closed bottle) was 0.03%. The “Related Substances 12 weeks 40°C/75 % RH open bottle” value ([1]; open bottle) was 0.08%, the “stability” value ([1]; closed bottle, four weeks at 60 °C, listed as sulfate (solvated)) was “stable” and the “stability” value ([1]; closed bottle, two weeks at 60 °C, listed as sulfate (solvated)) was “stable”. The “Initial Related Substances” value [1] was 0.08%, the “Hygroscopicity (water content)” value ([2]; 2 weeks 43 % rh) was 1.12% and the “Hygroscopicity (water content)” value ([2]; 2 weeks 75 % rh) was 1.0%. The “Hygroscopicity (water content)” value ([2]; 2 weeks 93 % rh) was 2.81% and the Initial water content ([2]; before humidity storage) was 0.69%.

For N[C@@H](CC(=O)N1CCn2c(nnc2C(F)(F)F)C1)Cc1cc(F)c(F)cc1F [H: Glycolate], the “Related Substances 2 W 40°C/75 % RH open” value [1] was 0.24%, the “Related Substances 2 W 60°C closed” value [1] was 1.81% and the “Related Substances 4 w 40°C/75 % RH closed” value [1] was 0.49%. The “Related Substances 4 w 40°C/75 % RH open” value [1] was 0.61%, the “Related Substances 4 w 60°C Closed bottle” value ([1]; closed bottle) was 4.06% and the “Related Substances 12 weeks 40°C/75 % RH closed bottle” value ([1]; closed bottle) was 1.09%. The “Related Substances 12 weeks 40°C/75 % RH open bottle” value ([1]; open bottle) was 0.99%, the “Initial Related Substances” value [1] was 0.05% and the “Hygroscopicity 2 weeks 43 % rh” value [2] was 2.24 ss %. The “Hygroscopicity 2 weeks 75 % rh” value [2] was “β 4.81%”, the “Hygroscopicity 2 weeks 93 % rh” value [2] was 24.85** % and the Initial water content ([2]; before storage) was 1.039%.

With N[C@@H](CC(=O)N1CCn2c(nnc2C(F)(F)F)C1)Cc1cc(F)c(F)cc1F [J: Mesylate II] the “Hygroscopicity 2 weeks 43 % rh” value [2] was 2.58%, the “Hygroscopicity 2 weeks 75 % rh” value [2] was 2.94% and the “Hygroscopicity 2 weeks 93 % rh” value [2] was 3.23%. For the same compound, the Initial water content ([2]; before storage) was 1.47%.

For N[C@@H](CC(=O)N1CCn2c(nnc2C(F)(F)F)C1)Cc1cc(F)c(F)cc1F [K: Mesylate I], the “Hygroscopicity 2 weeks 43 % rh” value [2] was 1.13%, the “Hygroscopicity 2 weeks 75 % rh” value [2] was 0.49% and the “Hygroscopicity 2 weeks 93 % rh” value [2] was 0.96%. For the same compound, the Initial water content ([2]; before storage) was 0.68%.

With N[C@@H](CC(=O)N1CCn2c(nnc2C(F)(F)F)C1)Cc1cc(F)c(F)cc1F [M: Phosphate H2O] the “Related Substances 2 W 40°C/75 % RH open” value [1] was 0.10%, the “Related Substances 2 W 60°C closed” value [1] was 0.12% and the “Related Substances 4 w 40°C/75 % RH closed” value [1] was 0.08%. For the same compound, the “Related Substances 4 w 40°C/75 % RH open” value [1] was 0.09%, the “Related Substances 4 w 60°C Closed bottle” value ([1]; closed bottle) was 0.06% and the “Related Substances 12 weeks 40°C/75 % RH closed bottle” value ([1]; closed bottle) was 0.09%. For the same compound, the “Related Substances 12 weeks 40°C/75 % RH open bottle” value ([1]; open bottle) was 0.12% and the “Initial Related Substances” value [1] was 0.08%.

In the case of N[C@@H](CC(=O)N1CCn2c(nnc2C(F)(F)F)C1)Cc1cc(F)c(F)cc1F [Q : HCl II], the “Hygroscopicity 2 weeks 43 % rh” value [2] is reported as 0.32%, the “Hygroscopicity 2 weeks 75 % rh” value [2] is reported as 0.44% and the “Hygroscopicity 2 weeks 93 % rh” value [2] is reported as 0.83%. It also gave an Initial water content ([2]; before storage) of 0.27%.

With N[C@@H](CC(=O)N1CCn2c(nnc2C(F)(F)F)C1)Cc1cc(F)c(F)cc1F [Q: HCl II] the “Related Substances 2 W 40°C/75 % RH open” value [1] was 0.36%, the “Related Substances 2 W 60°C closed” value [1] was 0.23% and the “Related Substances 4 w 40°C/75 % RH closed” value [1] was 0.30%. For the same compound, the “Related Substances 4 w 40°C/75 % RH open” value [1] was 0.53%, the “Related Substances 4 w 60°C Closed bottle” value ([1]; closed bottle) was 0.30% and the “Related Substances 12 weeks 40°C/75 % RH closed bottle” value ([1]; closed bottle) was 0.34%. For the same compound, the “Related Substances 12 weeks 40°C/75 % RH open bottle” value ([1]; open bottle) was 0.44% and the “Initial Related Substances” value [1] was 0.20%.

In the case of N[C@@H](CC(=O)N1CCn2c(nnc2C(F)(F)F)C1)Cc1cc(F)c(F)cc1F [maleate (non solvated), Sitagliptin Maleate Form II], the “stability” value [1, 4] is reported as “stable”.

For N[C@@H](CC(=O)N1CCn2c(nnc2C(F)(F)F)C1)Cc1cc(F)c(F)cc1F [maleate (solvated), Sitagliptin Maleate Form I], the “stability” value [1, 4] was “degradation was observed”.
